What was measured:
hENPP2 [1] = target: T1, hENPP2 (UniProtKB/SwissProt Sequence ref Q13822) (Homo sapiens (Human), UniProt Q13822); assay: FS3 hENPP2 assay (fluorogenic substrate FS-3); type: biochemical; conditions: hENPP2, FS-3 as substrate
Method: Compound IC50 values are determined in a fluorescent hENPP2 (UniProtKB/SwissProt Sequence ref Q13822) biochemical assay using the fluorogenic autotaxin substrate FS-3 as substrate. FS-3 is a doubly labeled analog of LPC wherein the fluorophore is quenched through intramolecular energy transfer. Without hENPP2, the emission of the probe is quenched. If the substrate is hydrolyzed by hENPP2, the emission of the probe is not quenched anymore resulting in a fluorescence increase. Inhibition of hENPP2 by compounds will result in a decrease of the signal.
10 μL of a dilution series of compound, starting from 20 μM highest concentration, ⅕ dilution, is added to the wells. hENPP2 is used at a final concentration of 0.4 μg/mL or 0.64 μg/mL (it will be appreciated by the skilled person that the potency read out is independent of the enzyme concentration). The enzyme is diluted in 50 mM Tris-HCl pH 8.0, 250 mM NaCl, 5 mM KCl, 1 mM MgCl2, 1 mM CaCl2, 0.1% fatty acid free BSA in a total volume of 20 μL. Enzyme mixture is added to compounds and the resulting mixture is incubated for 30 min at room temperature under shaking. The reaction is started by the addition of 20 μL of 0.75 μM FS-3 diluted in the same buffer as described above and the mixture is incubated at 30° C. for 30 min. Fluorescence is read on the Envision (Excitation 485 nm, emission 520 nm).

hENPP2 [2] = target: T1, hENPP2; assay: LPC hENPP2 assay (choline release, LPC as substrate); type: biochemical
In short: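 Detection is coupled: choline oxidase produces peroxide, which HRP uses to form quinoneimine dye from TOOS and 4-aminoantipyrine, read at 555 nm. The reaction is stopped with 20 mM EGTA in the developer mix, then incubated 30 min at room temperature; inhibition lowers signal.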

Structure (SMILES)	IC50 (hENPP2 [1]) [nM]	IC50 (hENPP2 [2]) [nM]
CCOC(=O)C1CCN(c2ccc3nc(CC)c(N(C)c4nc(-c5ccc(F)cc5)cs4)n3n2)CC1 [Compound 95, ethyl 1-(2-ethyl-3-((4-(4-fluorophenyl)thiazol-2-yl)(methyl)amino)imidazo[1,2-b]pyridazin-6-yl)piperidine-4-carboxylate]	0.01 to 25	> 1000
CCc1nc2cnc(N3CCN(CC(=O)N4CC(F)C4)CC3)cn2c1N(C)c1nc(-c2ccc(F)cc2)c(C#N)s1 [Cpd 11, 2-((2-ethyl-6-(4-(2-(3-fluoroazetidin-1-yl)-2-oxoethyl)piperazin-1-yl)imidazo[1,2-a]pyrazin-3-yl)(methyl)amino)-4-(4-fluorophenyl) thiazole-5-carbonitrile]	0.01 to 25	100 to 500
CCc1nc2cnc(N3CCN(CC(=O)N4CCCC4)CC3)cn2c1N(C)c1nc(-c2ccc(F)cc2)c(C#N)s1 [Cpd 8, 2-((2-ethyl-6-(4-(2-oxo-2-(pyrrolidin-1-yl)ethyl)piperazin-1-yl)imidazo[1,2-a]pyrazin-3-yl)(methyl)amino)-4-(4-fluorophenyl) thiazole-5-carbonitrile]	0.01 to 25	100 to 500
CCc1nc2ccc(N3CCN(CCN4CCCC4=O)CC3)nn2c1N(C)c1nc(-c2ccc(F)cc2)cs1 [Cpd 46, 1-(2-(4-(2-ethyl-3-((4-(4-fluorophenyl)thiazol-2-yl)(methyl)amino)imidazo[1,2-b]pyridazin-6-yl)piperazin-1-yl)ethyl)pyrrolidin-2-one]	0.01 to 25	100 to 500
CCc1nc2ccc(N3CCN(CC(=O)N4CCCC4)CC3)nn2c1N(C)c1nc(-c2ccc(F)cc2)cs1 [Cpd 55, 2-(4-(2-ethyl-3-((4-(4-fluorophenyl)thiazol-2-yl)(methyl)amino)imidazo[1,2-b]pyridazin-6-yl)piperazin-1-yl)-1-(pyrrolidin-1-yl)ethanone]	0.01 to 25	100 to 500
CCc1nc2ccc(N3CCN(S(=O)(=O)CC)CC3)nn2c1N(C)c1nc(-c2ccc(F)cc2)cs1 [Cpd 71, N-(2-ethyl-6-(4-(ethylsulfonyl)piperazin-1-yl)imidazo[1,2-b]pyridazin-3-yl)-4-(4-fluorophenyl)-N-methylthiazol-2-amine]	0.01 to 25	> 1000
CN(c1nc(-c2ccc(F)cc2)c(C(=O)C(F)(F)F)s1)c1c(CCC#N)nc2ccc(C3CCN(S(C)(=O)=O)CC3)nn12 [Compound 199, 3-(3-((4-(4-fluorophenyl)-5-(2,2,2-trifluoroacetoyl)thiazol-2-yl)(methyl)amino)-6-(1-(methylsulfonyl)piperidin-4-yl)imidazo[1,2-b]pyridazin-2-yl)propanenitrile]	0.01 to 25	> 1000
CCc1nc2ccc(N3CC4CN(C(C)=O)CC4C3)nn2c1N(C)c1nc(-c2ccc(F)cc2)cs1 (stereo not drawn) [Compound 124, 1-(5-(2-ethyl-3-((4-(4-fluorophenyl)thiazol-2-yl)(methyl)amino)imidazo[1,2-b]pyridazin-6-yl)hexahydropyrrolo[3,4-c]pyrrol-2(1H)-yl)ethanone]	0.01 to 25	> 1000
CCc1nc2cnc(N3CCN(CC(=O)N4CCC4)CC3)cn2c1N(C)c1nc(-c2ccc(F)cc2)c(C#N)s1 [Cpd 4, 2-((6-(4-(2-(azetidin-1-yl)-2-oxoethyl)piperazin-1-yl)-2-ethylimidazo[1,2-a]pyrazin-3-yl)(methyl)amino)-4-(4-fluorophenyl) thiazole-5-carbonitrile]	0.01 to 25	100 to 500
CCc1nc2cnc(C3CCNCC3)cn2c1N(C)c1nc(-c2ccc(F)cc2)c(C#N)s1 [Cpd 22, 2-((2-ethyl-6-(piperidin-4-yl)imidazo[1,2-a]pyrazin-3-yl)(methyl)amino)-4-(4-fluorophenyl) thiazole-5-carbonitrile]	25 to 50	> 1000
CCc1nc2ccc(N3CCC(C(=O)O)CC3)nn2c1N(C)c1nc(-c2ccc(F)cc2)cs1 [Compound 96, 1-(2-ethyl-3-((4-(4-fluorophenyl)thiazol-2-yl)(methyl)amino)imidazo[1,2-b]pyridazin-6-yl)piperidine-4-carboxylic acid]	0.01 to 25	> 1000
CCc1nc2ccc(N3CCN(CC(=O)N(C)C)CC3)nn2c1N(C)c1nc(-c2ccc(F)cc2)c(C(=O)C(F)(F)F)s1 [Cpd 45, 2-(4-(2-ethyl-3-((4-(4-fluorophenyl)-5-(2,2,2-trifluoroacetoyl)thiazol-2-yl)(methyl)amino)imidazo[1,2-b]pyridazin-6-yl)piperazin-1-yl)-N,N-dimethylacetamide]	0.01 to 25	0.01 to 100
CCc1nc2ccc(N3CCN(CC(=O)N4CC(O)C4)CC3)nn2c1N(C)c1nc(-c2ccc(F)cc2)cs1 [Cpd 26]	0.01 to 25	100 to 500
CCc1nc2ccc(N3CCN(CC(=O)N4CC(O)C4)CC3)nn2c1N(C)c1nc(-c2ccc(F)cc2)c(C#N)s1 [Cpd 27, 2-((2-ethyl-6-(4-(2-(3-hydroxyazetidin-1-yl)-2-oxoethyl)piperazin-1-yl)imidazo[1,2-b]pyridazin-3-yl)(methyl)amino)-4-(4-fluorophenyl) thiazole-5-carbonitrile]	0.01 to 25	0.01 to 100

More lines, now with the values ahead:

IC50 (hENPP2 [1]) [nM]	IC50 (hENPP2 [2]) [nM]	Structure (SMILES)
0.01 to 25	> 1000	CCc1nc2ccc(N3CCCN(S(C)(=O)=O)CC3)nn2c1N(C)c1nc(-c2ccc(F)cc2)cs1 [Cpd 116, N-(2-ethyl-6-(4-(methylsulfonyl)-1,4-diazepan-1-yl)imidazo[1,2-b]pyridazin-3-yl)-4-(4-fluorophenyl)-N-methylthiazol-2-amine]
0.01 to 25	> 1000	CCc1nc2ccc(N3CCC(O)C3)nn2c1N(C)c1nc(-c2ccc(F)cc2)cs1 (stereo not drawn) [Cpd 129, 1-(2-ethyl-3-((4-(4-fluorophenyl)thiazol-2-yl)(methyl)amino)imidazo[1,2-b]pyridazin-6-yl)pyrrolidin-3-ol]
0.01 to 25	> 1000	CCc1nc2ccc(N3CCCN(C(C)=O)CC3)nn2c1N(C)c1nc(-c2ccc(F)cc2)cs1 [Cpd 115, 1-(4-(2-ethyl-3-((4-(4-fluorophenyl)thiazol-2-yl)(methyl)amino)imidazo[1,2-b]pyridazin-6-yl)-1,4-diazepan-1-yl)ethanone]
50 to 100	> 1000	CCc1nc2ccc(C3CCN(CC(=O)N4CC(O)C4)CC3)nn2c1N(C)c1nc(-c2ccc(F)cc2)ccc1C#N [Cpd 217, 2-((2-ethyl-6-(1-(2-(3-hydroxyazetidin-1-yl)-2-oxoethyl)piperidin-4-yl)imidazo[1,2-b]pyridazin-3-yl)(methyl)amino)-6-(4-fluorophenyl) nicotinonitrile]
0.01 to 25	> 1000	CCc1nc2ccc(N3CC4CN(S(=O)(=O)CCCCl)CC4C3)nn2c1N(C)c1nc(-c2ccc(F)cc2)cs1 (stereo not drawn) [Cpd 125, N-(6-(5-(3-chloropropyl-sulfonyl)-hexahydropyrrolo [3,4-c]pyrrol-2(1H)-yl)-2-ethylimidazo[1,2-b]pyridazin-3-yl)-4-(4-fluorophenyl)-N-methylthiazol-2-amine]
0.01 to 25	> 1000	CCc1nc2ccc(N3CCCC(CNS(C)(=O)=O)C3)nn2c1N(C)c1nc(-c2ccc(F)cc2)cs1 (stereo not drawn) [Cpd 102, N-((1-(2-ethyl-3-((4-(4-fluorophenyl)thiazol-2-yl)(methyl)amino)imidazo[1,2-b]pyridazin-6-yl)piperidin-3-yl)methyl) methanesulfonamide]
0.01 to 25	100 to 500	CCc1nc2ccc(N3CCC(N4CCOCC4)C3)nn2c1N(C)c1nc(-c2ccc(F)cc2)cs1 (stereo not drawn) [Cpd 147, N-(2-ethyl-6-(3-morpholino-pyrrolidin-1-yl)imidazo[1,2-b]pyridazin-3-yl)-4-(4-fluorophenyl)-N-methylthiazol-2-amine]
0.01 to 25	500 to 1000	CCc1nc2ccc(N3CCC(N4CCC(O)CC4)C3)nn2c1N(C)c1nc(-c2ccc(F)cc2)cs1 (stereo not drawn) [Cpd 152, 1-(1-(2-ethyl-3-((4-(4-fluorophenyl)thiazol-2-yl)(methyl)amino)imidazo[1,2-b]pyridazin-6-yl)pyrrolidin-3-yl)piperidin-4-ol]
0.01 to 25	0.01 to 100	CCc1nc2ccc(C3CCN(CC(=O)N4CC(O)C4)CC3)nn2c1N(C)c1nc(-c2ccc(F)cc2)c(C#N)s1 [Cpd 212, 2-((2-ethyl-6-(1-(2-(3-hydroxyazetidin-1-yl)-2-oxoethyl)piperidin-4-yl)imidazo[1,2-b]pyridazin-3-yl)(methyl)amino)-4-(4-fluorophenyl) thiazole-5-carbonitrile]
0.01 to 25	100 to 500	CCc1nc2ccc(N3CCC(O)C3)nn2c1N(C)c1nc(-c2ccc(F)cc2)c(C#N)s1 (stereo not drawn) [Cpd 171, 2-((2-ethyl-6-(3-hydroxypyrrolidin-1-yl)imidazo[1,2-b]pyridazin-3-yl)(methyl)amino)-4-(4-fluorophenyl) thiazole-5-carbonitrile]

— patent US9796719B2, “Compounds and pharmaceutical compositions thereof for the treatment of inflammatory disorders” (GALAPAGOS NV, priority 2013, dated 2017)
